Drawing on US20240408216A1, “PROTEIN INHIBITOR OR DEGRADING AGENT, PHARMACEUTICAL COMPOSITION CONTAINING SAME AND PHARMACEUTICAL USE” (JING MEDICINE TECHNOLOGY (SHANGHAI) LTD., priority 2021, published 2024), this text covers IC50 for six compounds.

Each structure is given as a SMILES string.

One experiment deals with BaF3 (EGFR Del19/T790M/C797S). The experiment is described as follows: Cell proliferation IC50 assay (Cell Titer GLO), BaF3 DTC cells. Type of experiment: cell-based. The following applies: Mus musculus, Ba/F3 EGFR-Del19/T790M/C797S, Table 5, 72 h. On the procedure:
(§1) IC50 of compounds in the present invention was determined by Cell Titer GLO reagent from Promega. The procedures are as follows:
(§2) Tumor cells were cultured in specified medium in an incubator at 37° C. and 5% CO2. The cells were passaged periodically. Cells at the logarithmic growth phase were collected for plating at a density of 2000-4000 cells/well. The next day, the compounds of the present invention were serially diluted and added to the cells, with DMSO being the negative control and the culture media without cells being the blank control. The plate was incubated in the incubator for 72 h. The cell viability assay was performed by adding the detection reagents to the cell culture media according to Cell Titer GLO reagent instructions and detecting luminescent signals on an EnVision microplate reader (PerkinElmer).
(§3) Inhibition of cell growth by the compounds of the present invention was plotted by Prism Graphpad software for statistically calculating the IC50 of the compound of the present invention.
A word on the IC50: it is the concentration that inhibits the measured activity by half. With `CCc1cc(Nc2ncc(Cl)c(Nc3ccccc3P(C)(C)=O)n2)c(OC)cc1N1CCC(N2CCN(CCC#Cc3ccc4c(c3)CN(C3CCC(=O)NC3=O)C4=O)CC2)CC1` (stereo not drawn) [Example E24], half-maximal inhibition (IC50) was put at 35.4 nM.
As to `COc1cc(N2CCC3(CCN(CCCC#Cc4cccc5c4CN(C4CCC(=O)NC4=O)C5=O)CC3)CC2)c(Cl)cc1Nc1ncc(Cl)c(Nc2ccccc2P(C)(C)=O)n1` (stereo not drawn) [Example E11], the IC50 amounted to 17.1 nM.
The same measure, in the same setting: then `CCc1cc(Nc2ncc(Cl)c(Nc3ccccc3P(C)(C)=O)n2)c(OC)cc1N1CCC(N2CCN(CCCCCc3cc4c(cc3F)C(=O)N(C3CCC(=O)NC3=O)C4)CC2)CC1` (stereo not drawn) [Example E19], with 8.9 nM; and `CCc1cc(Nc2ncc(Cl)c(Nc3ccccc3P(C)(C)=O)n2)c(OC)cc1N1CCC(N2CC3(CCC(Oc4cccc5c4CN(C4CCC(=O)NC4=O)C5=O)CC3)C2)CC1` (stereo not drawn) [Example E29], with 14 nM.
The compound `COc1cc(N2CCC(N3CCN(CCC#Cc4cccc5c4CN(C4CCC(=O)NC4=O)C5=O)CC3)CC2)c(C)cc1Nc1ncc(Cl)c(Nc2ccccc2P(C)(C)=O)n1` (stereo not drawn) [Example E3] had an IC50 of 14.3 nM.
Still for that read-out and setting: under `COc1cc(N2CCC(N3CCN(CCCc4cccc5c4CN(C4CCC(=O)NC4=O)C5=O)CC3)CC2)ccc1Nc1ncc(Cl)c(Nc2ccccc2P(C)(C)=O)n1` (stereo not drawn) [Example C-4, reference compound] stands 41.7 nM.

The test system of another experiment is BaF3 (EGFR L858R/T790M/C797S). Put plainly: Cell proliferation IC50 assay (Cell Titer GLO), BaF3 LTC cells. Type of experiment: cell-based. The note with it: Mus musculus, Ba/F3 EGFR, Table 5, 72 h. Summed up:
(§4)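 Cells plated at 2000-4000 cells/well and treated the next day with serially diluted compound for 72 h at 37° C, 5% CO2. Viability read by CellTiter-Glo luminescence, normalised to DMSO and cell-free blank controls; IC50 fitted from growth inhibition curves.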
On the technique in general: Cellular ATP, detected with luciferase, serves as a proxy for viable cell number.
In the case of `CCc1cc(Nc2ncc(Cl)c(Nc3ccccc3P(C)(C)=O)n2)c(OC)cc1N1CCC(N2CCN(CCC#Cc3ccc4c(c3)CN(C3CCC(=O)NC3=O)C4=O)CC2)CC1` (stereo not drawn) [Example E24], the IC50 came out at 70.6 nM.
On the same count and under the same terms, then `COc1cc(N2CCC3(CCN(CCCC#Cc4cccc5c4CN(C4CCC(=O)NC4=O)C5=O)CC3)CC2)c(Cl)cc1Nc1ncc(Cl)c(Nc2ccccc2P(C)(C)=O)n1` (stereo not drawn) [Example E11], with 61.3 nM.
For `CCc1cc(Nc2ncc(Cl)c(Nc3ccccc3P(C)(C)=O)n2)c(OC)cc1N1CCC(N2CCN(CCCCCc3cc4c(cc3F)C(=O)N(C3CCC(=O)NC3=O)C4)CC2)CC1` (stereo not drawn) [Example E19], the IC50 amounted to 61.1 nM.
In turn, `CCc1cc(Nc2ncc(Cl)c(Nc3ccccc3P(C)(C)=O)n2)c(OC)cc1N1CCC(N2CC3(CCC(Oc4cccc5c4CN(C4CCC(=O)NC4=O)C5=O)CC3)C2)CC1` (stereo not drawn) [Example E29] had a half-maximal inhibitory concentration (IC50) of 20.9 nM.
Take `COc1cc(N2CCC(N3CCN(CCC#Cc4cccc5c4CN(C4CCC(=O)NC4=O)C5=O)CC3)CC2)c(C)cc1Nc1ncc(Cl)c(Nc2ccccc2P(C)(C)=O)n1` (stereo not drawn) [Example E3]: the IC50 is 46.6 nM.
Still for that read-out and setting: then `COc1cc(N2CCC(N3CCN(CCCc4cccc5c4CN(C4CCC(=O)NC4=O)C5=O)CC3)CC2)ccc1Nc1ncc(Cl)c(Nc2ccccc2P(C)(C)=O)n1` (stereo not drawn) [Example C-4, reference compound], with 70.7 nM.

For a further experiment, the system named is BaF3 (EGFR WT). The experiment is described as follows: Cell proliferation IC50 assay (Cell Titer GLO), BaF3 WT cells. The experiment is classed as cell-based. The following applies: Mus musculus, Ba/F3 EGFR, Table 5, 10 ng/ml EGF, 72 h. Put shortly: as §4
Take `CCc1cc(Nc2ncc(Cl)c(Nc3ccccc3P(C)(C)=O)n2)c(OC)cc1N1CCC(N2CCN(CCC#Cc3ccc4c(c3)CN(C3CCC(=O)NC3=O)C4=O)CC2)CC1` (stereo not drawn) [Example E24]: half-maximal inhibition (IC50) required 1550 nM.
Still for that read-out and setting: under `COc1cc(N2CCC3(CCN(CCCC#Cc4cccc5c4CN(C4CCC(=O)NC4=O)C5=O)CC3)CC2)c(Cl)cc1Nc1ncc(Cl)c(Nc2ccccc2P(C)(C)=O)n1` (stereo not drawn) [Example E11] stands 236 nM; under `CCc1cc(Nc2ncc(Cl)c(Nc3ccccc3P(C)(C)=O)n2)c(OC)cc1N1CCC(N2CCN(CCCCCc3cc4c(cc3F)C(=O)N(C3CCC(=O)NC3=O)C4)CC2)CC1` (stereo not drawn) [Example E19], over 4000 nM.
In turn, `CCc1cc(Nc2ncc(Cl)c(Nc3ccccc3P(C)(C)=O)n2)c(OC)cc1N1CCC(N2CC3(CCC(Oc4cccc5c4CN(C4CCC(=O)NC4=O)C5=O)CC3)C2)CC1` (stereo not drawn) [Example E29] showed an IC50 of 1000 nM.
The same measure, in the same setting: then `COc1cc(N2CCC(N3CCN(CCC#Cc4cccc5c4CN(C4CCC(=O)NC4=O)C5=O)CC3)CC2)c(C)cc1Nc1ncc(Cl)c(Nc2ccccc2P(C)(C)=O)n1` (stereo not drawn) [Example E3], with 287 nM.

A further experiment has as its system BaF3 patent. Put plainly: Cell proliferation IC50 assay (Cell Titer GLO), BaF3 parental cells. Type of experiment: cell-based. The following applies: Mus musculus, Table 5, 10 ng/ml mIL3, 72 h. The method, then: as §1, §2, §3
As to `CCc1cc(Nc2ncc(Cl)c(Nc3ccccc3P(C)(C)=O)n2)c(OC)cc1N1CCC(N2CCN(CCC#Cc3ccc4c(c3)CN(C3CCC(=O)NC3=O)C4=O)CC2)CC1` (stereo not drawn) [Example E24], the half-maximal inhibitory concentration (IC50) came out at 1260 nM.
Same read-out and setting: under `COc1cc(N2CCC3(CCN(CCCC#Cc4cccc5c4CN(C4CCC(=O)NC4=O)C5=O)CC3)CC2)c(Cl)cc1Nc1ncc(Cl)c(Nc2ccccc2P(C)(C)=O)n1` (stereo not drawn) [Example E11] stands 147 nM; under `CCc1cc(Nc2ncc(Cl)c(Nc3ccccc3P(C)(C)=O)n2)c(OC)cc1N1CCC(N2CCN(CCCCCc3cc4c(cc3F)C(=O)N(C3CCC(=O)NC3=O)C4)CC2)CC1` (stereo not drawn) [Example E19], over 4000 nM; under `CCc1cc(Nc2ncc(Cl)c(Nc3ccccc3P(C)(C)=O)n2)c(OC)cc1N1CCC(N2CC3(CCC(Oc4cccc5c4CN(C4CCC(=O)NC4=O)C5=O)CC3)C2)CC1` (stereo not drawn) [Example E29], 1370 nM.
Consider `COc1cc(N2CCC(N3CCN(CCC#Cc4cccc5c4CN(C4CCC(=O)NC4=O)C5=O)CC3)CC2)c(C)cc1Nc1ncc(Cl)c(Nc2ccccc2P(C)(C)=O)n1` (stereo not drawn) [Example E3], for which the IC50 is 521 nM.
On the same count and under the same terms, then `COc1cc(N2CCC(N3CCN(CCCc4cccc5c4CN(C4CCC(=O)NC4=O)C5=O)CC3)CC2)ccc1Nc1ncc(Cl)c(Nc2ccccc2P(C)(C)=O)n1` (stereo not drawn) [Example C-4, reference compound], with 142 nM.

The test system of another experiment is A431. The experiment is described as follows: Cell proliferation IC50 assay (Cell Titer GLO), A431 cells. The experiment is classed as cell-based. The following applies: Homo sapiens, A-431; Table 5; A431, 72 h; read-out: A431 IC50. Summed up:
as §4
Consider `CCc1cc(Nc2ncc(Cl)c(Nc3ccccc3P(C)(C)=O)n2)c(OC)cc1N1CCC(N2CCN(CCC#Cc3ccc4c(c3)CN(C3CCC(=O)NC3=O)C4=O)CC2)CC1` (stereo not drawn) [Example E24], for which the IC50 is 1460 nM.
On the same count and under the same terms, then `COc1cc(N2CCC3(CCN(CCCC#Cc4cccc5c4CN(C4CCC(=O)NC4=O)C5=O)CC3)CC2)c(Cl)cc1Nc1ncc(Cl)c(Nc2ccccc2P(C)(C)=O)n1` (stereo not drawn) [Example E11], with over 4000 nM.
For `CCc1cc(Nc2ncc(Cl)c(Nc3ccccc3P(C)(C)=O)n2)c(OC)cc1N1CCC(N2CCN(CCCCCc3cc4c(cc3F)C(=O)N(C3CCC(=O)NC3=O)C4)CC2)CC1` (stereo not drawn) [Example E19], the concentration for half-maximal inhibition (IC50) came out at 1070 nM.
On the same count and under the same terms, under `CCc1cc(Nc2ncc(Cl)c(Nc3ccccc3P(C)(C)=O)n2)c(OC)cc1N1CCC(N2CC3(CCC(Oc4cccc5c4CN(C4CCC(=O)NC4=O)C5=O)CC3)C2)CC1` (stereo not drawn) [Example E29] stands 1020 nM.
